Measured values as given in patent publication US20120263732A1, “CD40 ANTIBODY FORMULATION AND METHODS” (PFIZER INC., priority 2003, published 2012).

Tests used:
[1] = tested on: CD40(−) colon carcinoma, Lovo; test: CD40(−) Lovo colon carcinoma growth in SCID-beige mice; assay type: in vivo, human tumor in SCID-beige mice; settings: immune cells present; compared with K562 results
Experimental: (§1) The effects of a CD40 antibody (21.4.1) on the growth of CD40(−) tumors (e.g., erythroleukemia and colon carcinoma) were examined. In particular, K562 tumors were chosen to assess the efficacy of 21.4.1 against a CD40(−) low immunogenic (class I and II negative) tumor.
(§2) SCID-beige mice were injected SC with the CD40(−) erythroleukemic tumor, K562 (ATCC CCL-243) alone or in the presence of human peripheral blood T cells and DCs. Animals received a single IP injection of 21.4.1 either at the time of tumor injection or 5 days later using various dose levels.
The amount of 21.4.1 to cause a 50% inhibition of tumor growth was 0.005 mg/kg corresponding to a Cmax serum concentration of 0.05 μg/mL. […] The results were identical when 21.4.1 was administered on Day 0 or Day +5 relative to tumor challenge. The growth of these CD40(−) tumors was not inhibited by 21.4.1 in the absence of immune cells.

[2] = tested on: CD40(+) Raji B cell lymphoma; test: CD40(+) Raji B cell lymphoma growth in SCID-beige mice; assay type: in vivo, human tumor in SCID-beige mice
Experimental: SCID-beige mice were injected subcutaneously with the CD40(+) Raji B cell lymphoma (ATCC CCL-86) (SC) followed by a single dose of 21.4.1 (IP) at the time of tumor injection. Some animals were also injected with human T cells and DC. Tumor growth was assessed on Day 21.

breast tumor, BT 474 = test: Established BT 474 breast tumors: antibody and/or cisplatin; assay type: in vivo, human tumor in SCID-beige mice; settings: single IP injection once tumors reached 200 mm^2; antibody 1 mg/kg, cisplatin 2.5 mg/kg; Day 84
Experimental: The therapeutic effects of an anti-CD40 antibody (21.4.1) in preventing the growth of human breast tumors alone and in the presence of cisplatin was examined.
SCID-beige mice were injected SC with the breast tumor, BT 474. The antibody (1 mg/kg, IP) and/or cisplatin (2.5 mg/kg, IP) were administered as a single injection once tumors reached a size of 200 mm^2. Tumor growth was measured on Day 84 after challenge.

[3] = tested on: human breast tumor, BT 474; test: BT 474 breast tumor growth with human T cells and DC in SCID-beige mice; assay type: in vivo; settings: in the presence of immune cells; single injection
From the text: SCID-beige mice were challenged with the human breast tumor, BT 474 (ATCC HTB-20), SC, together with human peripheral blood T cells and DC. Animals received a single dose of 21.4.1 (IP) at the time of tumor injection.

B cell lymphoma Daudi = test: Mortality in systemic Daudi B cell lymphoma model; assay type: in vivo, human tumor in SCID-beige mice; settings: Daudi IV; single IP injection; monitored for 58 days
Experimental: The ability of an anti-CD40 antibody according to the invention (21.4.1) to delay mortality in a CD40(+) systemic tumor model using a B cell lymphoma was assessed.
SCID-beige mice were injected IV with the B cell lymphoma Daudi (ATCC CCL-213). 21.4.1 was administered as a single injection (IP) at the time of tumor injection. Mortality was monitored for 58 days.

[4] = tested on: CD40(−) erythroleukemic tumor, K562; test: CD40(−) K562 erythroleukemic tumor growth in SCID-beige mice; assay type: in vivo, human tumor in SCID-beige mice; settings: K562 with human T cells and DC; single IP injection; Day 21
Experimental: as §1, §2

Compound | inhibition of Lovo colon carcinoma growth [1] | anti-tumor activity against CD40(+) tumors when immune cells were present ([2]; Raji) | tumor growth, single agent (breast tumor, BT 474) | growth of BT 474 cells [3] | mortality induced by systemically administered tumor cell line (B cell lymphoma Daudi) | amount to cause a 50% inhibition of tumor growth (IC50) [4] [mg/kg] | amount to cause a 50% inhibition of tumor growth (IC50) ([2]; Raji in the absence of immune cells, single IP dose, Day 21) [mg/kg]
3.1.1: human anti-CD40 antibody; amino acid sequences SEQ ID NOs:1-4; hybridoma deposit PTA-3600 | demonstrated | demonstrated | demonstrated | demonstrated | demonstrated | – | –
3.1.1H-A78T-V88A-V97A/3.1.1L-L4M-L83V: 3.1.1 variant with three heavy chain and two light chain substitutions; SEQ ID NOs:9, 2, 10, 4 | – | – | – | – | – | < 0.01 | < 0.01
N.N.[Cl][Pt][Cl] [cisplatin, cis-diaminedichloroplatinum, reference compound] | – | – | prevented tumor growth | – | – | – | –
